Like-named read-outs stand apart in the source and are kept apart here.
Molecular target: hNav1.7 (Homo sapiens (Human), UniProt Q15858)
Assay: Tritiated aryl sulfonamide binding to membranes from cells expressing hNav1.7 and the β1 subunit (competitive binding)
Settings: read-out: NaV1.7 395 Memb Binding (IC50)
Procedure: Tritiated Aryl Sulfonamide Binding to Membranes Isolated from Cells that Heterologously Express hNav1.7 and the β1 Subunit
Preparation of membranes containing recombinantly expressed sodium channels: Frozen recombinant cell pellets were thawed on ice and diluted to 4 times the cell pellet weight with ice cold 50 mM Tris HCl, pH 7.4 buffer. The cell suspensions were homogenized on ice using a motorized glass dounce homogeniser. Homogenates were further diluted 8.4 times with ice cold 50 mM Tris HCl, pH 7.4 buffer and then centrifuged at 200×g at 4° C. for 15 min. The supernatants were collected and centrifuged at 10000×g at 4° C. for 50 min. The pellets were then re-suspended in 100 mM NaCl, 20 mM Tris HCl, pH 7.4 buffer containing 1% v/v protease inhibitors (Calbiochem) and re-homogenized on ice. The homogenized membranes were then processed through a syringe equipped with a 26 gauge needle. Protein concentrations were determined by Bradford Assay and the membranes were stored at −80° C.
Radioligand Binding Studies: Saturation experiments. A representative compound of formula (I) was tritiated. Three tritiums were incorporated in place of methyl hydrogens to generate [^3H]compound. Binding of this radioligand was preformed in 5 mL borosilicate glass test tubes at room temperature. Binding was initiated by adding membranes to increasing concentrations of [^3H]compound in 100 mM NaCl, 20 mM Tris HCl, pH 7.4 buffer containing 0.01% w/v bovine serum albumin (BSA) for 18 h. Non-specific binding was determined in the presence of 1 μM unlabelled compound. After 18 h, the reactants were filtered through GF/C glass fiber filters presoaked in 0.5% w/v polyethylene imine. […] [^3H]compound bound to filters was quantified by liquid scintillation counting.
Competitive binding experiments. Binding reactions were preformed in 96-well polypropylene plates at room temperature for 18 h. In 360 μL, membranes were incubated with 100 μM [^3H]compound and increasing concentrations of Test Compound. Non-specific binding was defined in the presence of 1 μM unlabelled compound. Reactions were transferred and filtered through 96-well glass fiber/C filter plates presoaked with 0.5% polyethylene imine. The filtered reactions were washed 5 times with 200 L ice cold buffer containing 0.25% BSA. Bound radioactivity was determined by liquid scintillation counting.
Data Analysis: For saturation experiments, non-specific binding was subtracted from total binding to provide specific binding and these values were recalculated in terms of pmol ligand bound per mg protein. Saturation curves were constructed and dissociation constants were calculated using the single site ligand binding model: Beq=(Bmax*X)/(X+Kd), where Beq is the amount of ligand bound at equilibrium, Bmax is the maximum receptor density, Kd is the dissociation constant for the ligand, and X is the free ligand concentration.

[1] = membranes with hNav1.7 and β1 subunit, [3H]compound displacement, 18 h, room temperature

Chain of hNav1.7 (Q15858 whole entry, looked up): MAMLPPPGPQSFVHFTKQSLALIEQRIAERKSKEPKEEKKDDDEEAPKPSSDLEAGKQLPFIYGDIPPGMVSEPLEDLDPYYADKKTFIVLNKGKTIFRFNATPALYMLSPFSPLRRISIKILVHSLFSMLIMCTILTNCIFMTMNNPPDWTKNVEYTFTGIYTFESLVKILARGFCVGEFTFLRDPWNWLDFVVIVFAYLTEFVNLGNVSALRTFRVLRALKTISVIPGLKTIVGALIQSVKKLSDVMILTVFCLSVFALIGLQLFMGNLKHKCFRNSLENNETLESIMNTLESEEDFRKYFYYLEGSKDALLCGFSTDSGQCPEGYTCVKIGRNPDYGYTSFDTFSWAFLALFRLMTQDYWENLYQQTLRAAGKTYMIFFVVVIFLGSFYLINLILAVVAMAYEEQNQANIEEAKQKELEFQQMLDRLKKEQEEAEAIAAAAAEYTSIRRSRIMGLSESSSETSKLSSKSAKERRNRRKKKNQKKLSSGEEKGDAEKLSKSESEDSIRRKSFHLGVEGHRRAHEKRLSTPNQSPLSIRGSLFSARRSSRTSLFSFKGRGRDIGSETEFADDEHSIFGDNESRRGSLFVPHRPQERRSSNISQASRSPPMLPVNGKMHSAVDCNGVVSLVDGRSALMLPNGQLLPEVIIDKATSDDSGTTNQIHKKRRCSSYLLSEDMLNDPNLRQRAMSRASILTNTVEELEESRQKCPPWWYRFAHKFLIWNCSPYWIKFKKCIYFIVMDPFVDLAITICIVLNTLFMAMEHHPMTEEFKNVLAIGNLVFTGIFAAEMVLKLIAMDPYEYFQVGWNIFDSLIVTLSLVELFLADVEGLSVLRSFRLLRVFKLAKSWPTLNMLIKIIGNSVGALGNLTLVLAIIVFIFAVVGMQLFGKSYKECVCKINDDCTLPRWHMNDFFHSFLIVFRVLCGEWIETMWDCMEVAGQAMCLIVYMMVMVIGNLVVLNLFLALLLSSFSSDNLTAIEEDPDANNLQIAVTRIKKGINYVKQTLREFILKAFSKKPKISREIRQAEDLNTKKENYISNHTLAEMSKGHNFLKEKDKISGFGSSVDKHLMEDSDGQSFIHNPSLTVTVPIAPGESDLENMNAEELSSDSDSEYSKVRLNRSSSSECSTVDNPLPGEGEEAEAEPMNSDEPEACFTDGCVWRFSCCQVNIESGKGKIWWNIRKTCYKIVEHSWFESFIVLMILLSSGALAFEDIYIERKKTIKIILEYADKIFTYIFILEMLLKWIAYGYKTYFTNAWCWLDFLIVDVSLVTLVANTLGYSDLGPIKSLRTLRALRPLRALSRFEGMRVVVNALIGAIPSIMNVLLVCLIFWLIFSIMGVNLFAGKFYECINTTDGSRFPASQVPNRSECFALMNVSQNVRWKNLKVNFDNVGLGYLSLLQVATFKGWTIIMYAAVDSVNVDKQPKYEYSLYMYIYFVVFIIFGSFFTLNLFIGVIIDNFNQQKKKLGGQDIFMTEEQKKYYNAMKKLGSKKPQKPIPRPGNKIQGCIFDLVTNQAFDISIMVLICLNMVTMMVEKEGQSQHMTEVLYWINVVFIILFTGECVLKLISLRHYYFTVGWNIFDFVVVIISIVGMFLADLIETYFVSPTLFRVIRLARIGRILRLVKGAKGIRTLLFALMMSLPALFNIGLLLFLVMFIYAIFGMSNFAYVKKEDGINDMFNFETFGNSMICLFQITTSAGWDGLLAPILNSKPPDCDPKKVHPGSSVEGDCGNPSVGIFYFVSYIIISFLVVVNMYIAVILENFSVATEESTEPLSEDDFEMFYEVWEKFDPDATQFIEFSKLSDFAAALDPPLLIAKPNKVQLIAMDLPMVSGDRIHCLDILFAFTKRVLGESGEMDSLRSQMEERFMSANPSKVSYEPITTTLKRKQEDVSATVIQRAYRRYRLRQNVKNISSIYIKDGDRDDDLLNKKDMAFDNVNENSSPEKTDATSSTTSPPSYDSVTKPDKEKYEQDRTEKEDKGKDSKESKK
Chain of hNav1.7 (Q07699 whole entry partner, looked up): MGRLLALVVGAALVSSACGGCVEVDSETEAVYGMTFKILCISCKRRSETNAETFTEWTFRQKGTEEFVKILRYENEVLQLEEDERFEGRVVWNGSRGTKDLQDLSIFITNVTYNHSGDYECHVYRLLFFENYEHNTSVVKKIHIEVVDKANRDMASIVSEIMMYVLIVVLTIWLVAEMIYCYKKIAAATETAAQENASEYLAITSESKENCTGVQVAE

Compound	IC50 [1] [µM]	IC50 [µM]
CC(C)(C)OC(=O)N1CCCC(COc2cc(F)c(C(=O)NS(C)(=O)=O)cc2F)C1 (stereo not shown)	9.99	–
CS(=O)(=O)NC(=O)c1ccc(C(O)C2C3CC4CC(C3)CC2C4)c(Cl)c1 (stereo not shown)	–	1.2
CS(=O)(=O)NC(=O)c1cc(F)c(OCCC2CC2)cc1F	6.86	–
CS(=O)(=O)NC(=O)c1ccc(OCCC23CC4CC(CC(C4)C2)C3)c(Cl)c1	0.09	–
CS(=O)(=O)NC(=O)c1cc(Cl)c(Oc2ccc3c(c2)CCCC3)cc1F	0.19	–
CC1(COc2cc(F)c(C(=O)NS(=O)(=O)N3CCC3)cc2C2CC2)CCCCC1	0.003	–
O=C(NS(=O)(=O)N1CCC1)c1cc(C2CC2)c(OCC23CC4CC(C2)CC(OC(=O)C(F)(F)F)(C4)C3)cc1F	0.035	–
CNS(=O)(=O)NC(=O)c1cc(C2CC2)c(OCC2(C(F)(F)F)CCCCC2)cc1F	0.02	–
CNS(=O)(=O)NC(=O)c1cc(C2CC2)c(OCC2CCC(F)(F)CC2)cc1F	0.13	–
CC1(COc2cc(F)c(C(=O)NS(C)(=O)=O)cc2C2CC2)CCC(F)(F)CC1	0.018	–
CC(C)(F)c1cc(C(=O)NS(=O)(=O)N2CCC2)c(F)cc1OCC12CC3CC(CC(C3)C1)C2	0.036	–
O=C(NS(=O)(=O)C1CC1)c1cc(C2CC2)c(OCC2CC3CC3C2)cc1F (stereo not shown)	0.011	–
O=C(NS(=O)(=O)N1CC2(CCO2)C1)c1cc(C2CC2)c(OCC23CC4CC(CC(C4)C2)C3)cc1F	0.04	–
[2H]C1([2H])C([2H])([2H])C([2H])([2H])C([2H])(COc2cc(F)c(C(=O)NS(C)(=O)=O)cc2Cl)C([2H])([2H])C1([2H])[2H]	0.21	–
CS(=O)(=O)NC(=O)c1cc(Cl)c(C(=O)NC23CC4CC(CC(C4)C2)C3)cc1F	10	–
CC1(C)C(COc2cc(F)c(C(=O)NS(C)(=O)=O)cc2Cl)C1(C)C [listing 1 of 2 here]	10	–
CS(=O)(=O)NC(=O)c1cc(F)c(OCC2CCCNC2)cc1F (stereo not shown)	10	–
CS(=O)(=O)NC(=O)c1cc(Cl)c(OCC2CCCCC2)cc1F	0.14	–
CS(=O)(=O)NC(=O)c1cc(Cl)c(OCCC2CCCC2)cc1F	0.14	–
O=C(NS(=O)(=O)N1CCC1)c1cc(Cl)c(OCC2CC3C(C2)C3(F)F)cc1F (stereo not shown)	0.2	–
CN(C)S(=O)(=O)NC(=O)c1cc(Cl)c(OC2C3CC4CC(C3)CC2C4)cc1F (stereo not shown)	0.19	–
COC12CC3CC(CC(COc4cc(F)c(C(=O)NS(C)(=O)=O)cc4Cl)(C3)C1)C2	0.603	–
CS(=O)(=O)NC(=O)c1cc(F)c(OCC2CCCO2)cc1F (stereo not shown)	–	10

Compound	IC50 [1] [µM]	IC50 [µM]
CS(=O)(=O)NC(=O)c1cc(C2CC2)c(COC2C3CC4CC(C3)CC2C4)cc1F (stereo not shown)	0.005	–
CS(=O)(=O)NC(=O)c1ccc(OCC23CC4CC(CC(C4)C2)C3)c(C2CCC2)c1	0.009	–
CS(=O)(=O)NC(=O)c1cc(Cl)c(COC2C3CC4CC(C3)CC2C4)cc1F (stereo not shown)	0.006	–
CC1(C)[C@@H]2CC[C@@H](COc3cc(F)c(C(=O)NS(C)(=O)=O)cc3Cl)[C@H]1C2	0.058	–
CNS(=O)(=O)NC(=O)c1cc(Cl)c(COc2ccc3c(c2)CC(C)(C)CC3)cc1F	0.026	–
CNS(=O)(=O)NC(=O)c1cc(Cl)c(COc2ccc3c(c2)CCC(C)(C)C3)cc1F	0.065	–
CNS(=O)(=O)NC(=O)c1cc(C2CC2)c(OCC23CC4CC(CC(C4)C2)C3)cc1F	0.0021	–
CNS(=O)(=O)NC(=O)c1cc(Cl)c(COc2ccc3c(c2)CCC(C)(C)O3)cc1F	0.17	–
CNS(=O)(=O)NC(=O)c1cc(Cl)c(COc2ccc3c(c2)OC(C)(C)CC3)cc1F	0.18	–
O=C(NS(=O)(=O)CCO)c1cc(Cl)c(OCC23CC4CC(CC(C4)C2)C3)cc1F	0.13	–
CNS(=O)(=O)NC(=O)c1cc(Cl)c(OCC23CC4CC(CC(C4)C2)C3)cc1F	0.097	–
O=C(NS(=O)(=O)N1CCC1)c1cc(Cl)c(OCC23CC4CC(CC(C4)C2)C3)cc1F	0.021	–
O=C(NS(=O)(=O)c1c[nH]cn1)c1cc(Cl)c(OCC23CC4CC(CC(C4)C2)C3)cc1F	0.19	–
O=C(NS(=O)(=O)N1CCOCC1)c1cc(Cl)c(OCC23CC4CC(CC(C4)C2)C3)cc1F	0.055	–
Cc1nnn(C23CC4CC(CC(COc5cc(F)c(C(=O)NS(C)(=O)=O)cc5Cl)(C4)C2)C3)n1	0.77	–
CN(C)S(=O)(=O)NC(=O)c1cc(Cl)c(COc2ccc3c(c2)OC(C)(C)CC3)cc1F	0.19	–
CN(C)S(=O)(=O)NC(=O)c1cc(Cl)c(COc2ccc3c(c2)CCC(C)(C)C3)cc1F	0.086	–
CCCCCC12CCC(COc3cc(F)c(C(=O)NS(=O)(=O)N(C)C)cc3Cl)(CC1)CC2	0.033	–
CN(C)S(=O)(=O)NC(=O)c1cc(Cl)c(OCC2(F)CCCCC2)cc1F	1.68	–
CS(=O)(=O)NC(=O)c1cc(Cl)c(OCC2(C(F)(F)F)CCC2)cc1F	0.122	–
CN(C)S(=O)(=O)NC(=O)c1cc(Cl)c(COc2ccc3c(c2)CC(C)(C)CC3)cc1F	0.106	–
CN(C)S(=O)(=O)NC(=O)c1ccc(OCC23CC4CC(CC(C4)C2)C3)c(C2CC2)c1	0.0162	–
CS(=O)(=O)NC(=O)c1cc(Cl)c(COC23CC4CC(CC(C4)C2)C3)cc1F	0.016	–

Compound	IC50 [1] [µM]	IC50 [µM]
CN(C)S(=O)(=O)NC(=O)c1cc(Cl)c(OCC2CCC3(CCC3)CC2)cc1F	0.081	–
CC1(C)C(COc2cc(F)c(C(=O)NS(C)(=O)=O)cc2Cl)C1(C)C [listing 2 of 2 here]	0.094	–
CS(=O)(=O)NC(=O)c1cc(Cl)c(OC[C@H]2CC[C@@H](C(F)(F)F)CC2)cc1F	0.086	–
4-((1-((4-chlorophenyl)(phenyl)methyl)azetidin-3-yl)-methoxy)-5-cyclopropyl-2-fluoro-N-(methylsulfonyl)benzamide [Example 398]	–	0.006
5-chloro-4-((4,4-difluorocyclohexyl)methoxy)-2-fluoro-N-(methylsulfonyl)benzamide [Example 42]	0.044	–
5-chloro-N—(N,N-dimethylsulfamoyl)-2-fluoro-4-((4-pentylbicyclo[2.2.2]octan-1-yl)-methoxy)benzamide [Example 91]	1.21	–
5-cyclopropyl-4-((4,4-difluorocyclohexyl)methoxy)-2-fluoro-N-((3-fluoroazetidin-1-yl)sulfonyl)benzamide [Example 212]	2.3	–
5-cyclopropyl-4-((4,4-difluorocyclohexyl)methoxy)-2-fluoro-N-(N-methylsulfamoyl)benzamide [Example 214]	–	0.9
COC(=O)C12CC3CC(C1)C(Oc1cc(F)c(C(=O)NS(C)(=O)=O)cc1Cl)C(C3)C2 (single isomer, unassigned) [Example 450]	1.2	–
COC(=O)C12CC3CC(C1)C(Oc1cc(F)c(C(=O)NS(C)(=O)=O)cc1Cl)C(C3)C2 (single isomer, unassigned) [Example 451]	0.27	–
CNS(=O)(=O)NC(=O)c1cc(Cl)c(OC2C3CC4CC2CC(C(=O)OC)(C4)C3)cc1F (single isomer, unassigned) [Example 452]	7.1	–
CNS(=O)(=O)NC(=O)c1cc(Cl)c(OC2C3CC4CC2CC(C(=O)OC)(C4)C3)cc1F (single isomer, unassigned) [Example 453]	0.95	–
CS(=O)(=O)NC(=O)c1cc(Cl)c(OC2C3CC4CC(C3)CC2C4)cc1F (stereo not shown) [Example 9]	0.04	–
CS(=O)(=O)NC(=O)c1cc(Cl)c(OCCC23CC4CC(CC(C4)C2)C3)cc1F [Example 11]	0.029	–
CS(=O)(=O)NC(=O)c1ccc(CNC23CC4CC(CC(C4)C2)C3)c(Cl)c1 [Example 17]	10	–
CS(=O)(=O)NC(=O)c1ccc(OCC23CC4CC(CC(O)(C4)C2)C3)c(Cl)c1 [Example 24]	10	–
CS(=O)(=O)NC(=O)c1cc(Cl)c(OCC2CCC3(CC2)CC3)cc1F [Example 50]	0.029	–
O=C(NS(=O)(=O)N1CCC1)c1ccc(OCC23CC4CC(CC(C4)C2)C3)c(C(F)(F)F)c1 [Example 53]	0.1	–
COc1cc(OCC23CC4CC(CC(C4)C2)C3)c(Cl)cc1C(=O)NS(C)(=O)=O [Example 56]	0.48	–
CS(=O)(=O)NC(=O)c1ccc(OCC23CC4CC(CC(C4)C2)C3)c(C(F)(F)F)c1 [Example 62]	0.058	–
CN(C)S(=O)(=O)NC(=O)c1cc(Cl)c(OCC2CCC3(CC2)CC3)cc1F [Example 88, 5-chloro-N-(dimethylsulfamoyl)-2-fluoro-4-(spiro[2.5]octan-6-ylmethoxy)benzamide]	0.121	–

Source: patent publication US8952169B2 (Genentech, Inc., priority 2012, dated 2015)
